pIC50: −log10 of the molar value.
Columns and labels:
[1] = system: H4K12 acetylation in HEK293 cells; assay: H4K12 acetylation western blot, constant exposure and washout; format: cell-based, human
Procedure: Frozen mouse brains (n = 6/treatment group) were rapidly dissected at 4°C to isolate frontal cortex (including PFC), ventral striatum (including NAc), and HIP for protein extraction. […] Solutions for protein extraction were supplemented with 5 mM sodium butyrate to suppress residual HDAC activity. […] Densitometric quantification was performed using Image J software (NIH) and statistical comparison to vehicle-treated controls by two-tailed t-test.
Protein was extracted by douncing in suspension buffer: 0.1 M NaCl, 0.01 M TrisCl (ph7.6), 0.001 M EDTA (pH 8.0), then immediately diluted with an equal volume of 2x SDS-gel loading buffer: 100 mM TrisCl (ph 6.8), 4% SDS, 20% glycerol, 200 mM DTT. […] Media was aspirated and cells collected for Western blotting using 40 μL buffers as detailed above for mouse brain. Solutions for protein extraction were supplemented with 5 mM sodium butyrate to suppress residual HDAC activity. Samples were denatured at 95°C for 5 min, passaged 3x through a 25 gauge needle and centrifuged at 10,000g for 10 min at room temperature and protein quantification performed using a BCA protein assay kit #23225 (Pierce). […] Chemiluminescent detection of immunoreactivity was performed using SuperSignal West Dura Substrate #34076 (Pierce) with subsequent densitometric quantification using Image J software (NIH) and statistical comparison to vehicle-treated controls by two-tailed t-test.

[2] = Positron emission tomography of carbon-11 labeled Cpd-60; format: in vivo, baboon (Papio anubis); conditions: intravenous, preliminary unpublished data
Description: Male 11 wk old C57BL/6 mice were utilized for pharmacokinetic, behavioral and biochemical analyses. One female baboon (Papio Anubis) was used to determine brain uptake and pharmacokinetics of Cpd-60. […] Non-human primate housing conditions and feeding regimens were coordinated by the professional investigative staff at the Brookhaven Laboratory Animal Facility which included social housing in cages appropriate for the physical and behavioral health of the individual animal. Animals were fed a 3x per day with additional nutritional supplements provided as prescribed by the attending veterinarian. Environmental enrichment included audio, video and tactile elements (e.g. listening to the radio, watching television, playing with toys and human interaction) and were provided on a daily basis to promote psychological well-being. All procedures were performed without compromising animal welfare and all efforts were made to minimize suffering including adequate use of anesthesia (ketamine, isoflurane) in the baboon imaging experiment. The baboon was not sacrificed following the study and further effort was taken to minimize suffering by allowing an interval of at least one month between subsequent imaging studies in the same animal.
C57BL/6 male mice were purchased at 10 weeks of age from The Jackson Laboratory and Taconic Farms. […]

C57BL/6 mice = assay: Amphetamine-induced hyperlocomotion (AIH); format: in vivo, mouse; conditions: chronic i.p.; Cpd-60 45 mg/kg, SAHA 25 mg/kg; vs vehicle; amphetamine 3.5 mg/kg
Procedure: Compounds were administered between 9 am and 1 pm for 7 days prior to the start of behavioral testing, and after completion of each daily session during behavioral testing. Testing was performed 18–24 hr after the previous treatment to avoid transient effects. Amphetamine-induced hyperlocomotion (AIH) was performed as previously described on days 7–9 of treatment with activity measured before and after amphetamine challenge (AccuScan Instruments, Inc.). Forced-swim test (FST) behavior was performed as previously described on day 10 of treatment and total time spent immobile during a 6 min session was scored automatically (Ethovision; Noldus). Treatment effects were analyzed by one way analysis of variance (ANOVA) with post hoc analysis using Least Squared Differences test (SPSS v18.0 IBM).

mice = assay: Tolerability of chronic treatment; format: in vivo; conditions: Cpd-60 45 mg/kg i.p., SAHA 25 mg/kg i.p.
HDAC4 = HDAC4 (Homo sapiens, UniProt P56524); assay: biochemical
HDAC8 = biological target: T1, HDAC8 (Homo sapiens, UniProt Q9BY41); assay: HDAC inhibition assay, recombinant enzyme, Caliper EZ reader
T1 sequence (Q9BY41 1-377): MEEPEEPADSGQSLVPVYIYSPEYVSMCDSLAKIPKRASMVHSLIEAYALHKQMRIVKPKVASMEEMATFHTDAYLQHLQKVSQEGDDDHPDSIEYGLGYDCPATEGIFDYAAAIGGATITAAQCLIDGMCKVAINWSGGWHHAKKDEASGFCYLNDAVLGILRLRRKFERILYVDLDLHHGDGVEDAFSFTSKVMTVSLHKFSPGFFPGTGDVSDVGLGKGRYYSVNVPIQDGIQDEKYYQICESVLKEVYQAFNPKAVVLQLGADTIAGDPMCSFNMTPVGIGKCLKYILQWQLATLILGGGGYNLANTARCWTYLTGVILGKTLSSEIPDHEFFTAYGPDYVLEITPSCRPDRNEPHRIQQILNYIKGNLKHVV

HDAC4, sequence (P56524 whole entry): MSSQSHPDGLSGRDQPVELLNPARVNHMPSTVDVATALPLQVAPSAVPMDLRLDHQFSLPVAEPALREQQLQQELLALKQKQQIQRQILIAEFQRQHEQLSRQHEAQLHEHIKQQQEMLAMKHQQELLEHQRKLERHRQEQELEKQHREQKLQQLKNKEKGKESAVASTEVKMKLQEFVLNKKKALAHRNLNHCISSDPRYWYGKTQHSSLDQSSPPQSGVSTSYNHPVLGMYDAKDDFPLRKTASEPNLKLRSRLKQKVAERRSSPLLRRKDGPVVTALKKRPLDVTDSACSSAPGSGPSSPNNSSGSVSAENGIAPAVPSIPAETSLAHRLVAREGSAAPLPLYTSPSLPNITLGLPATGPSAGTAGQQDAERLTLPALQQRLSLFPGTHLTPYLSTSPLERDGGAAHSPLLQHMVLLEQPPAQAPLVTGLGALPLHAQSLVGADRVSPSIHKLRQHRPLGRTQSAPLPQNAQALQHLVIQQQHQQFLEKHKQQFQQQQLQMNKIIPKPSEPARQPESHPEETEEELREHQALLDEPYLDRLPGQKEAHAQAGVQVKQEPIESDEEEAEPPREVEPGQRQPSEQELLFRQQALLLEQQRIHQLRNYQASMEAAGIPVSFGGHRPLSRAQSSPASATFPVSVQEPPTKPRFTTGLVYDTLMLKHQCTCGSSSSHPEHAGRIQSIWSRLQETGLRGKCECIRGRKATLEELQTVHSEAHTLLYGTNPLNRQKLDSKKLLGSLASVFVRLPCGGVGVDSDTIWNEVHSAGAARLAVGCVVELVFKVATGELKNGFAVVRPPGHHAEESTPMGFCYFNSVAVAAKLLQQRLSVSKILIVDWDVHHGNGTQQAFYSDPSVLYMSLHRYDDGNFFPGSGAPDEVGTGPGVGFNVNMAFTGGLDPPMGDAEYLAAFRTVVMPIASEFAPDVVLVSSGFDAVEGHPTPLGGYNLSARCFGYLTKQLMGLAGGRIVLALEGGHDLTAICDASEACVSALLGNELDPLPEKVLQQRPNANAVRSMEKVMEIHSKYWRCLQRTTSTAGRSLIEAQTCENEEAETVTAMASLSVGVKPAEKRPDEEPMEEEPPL

CC(=O)Nc1ccc(C(=O)Nc2cc(-c3cccs3)ccc2N)cc1 [Cpd-60]
H4K12ac levels after washout ([1]; HEK293, 20 µM 24 hr, then 6 hr after media change): persistent increases in H4K12ac | H4K12ac levels, constant exposure ([1]; HEK293, 20 µM for 24 hr): elevated H4K12ac levels | brain uptake by PET [2]: reaches the brain, albeit at low levels relative to plasma | reduction of amphetamine-induced hyperlocomotion (C57BL/6 mice): 36% | tolerability of treatment for longer than 10 days (mice): not well tolerated | pIC50 (HDAC4): < 4.52 | pIC50 (HDAC8): < 4.52
